Source: patent US9181172B2, “Rhein conjugates, preparation method thereof and their uses in producing medicines for treating diabetic nephrosis, intestinal adhesion and osteoarthritis” (priority 2005, dated 2015)

Legend:
Type in all cases: in vivo
mice [1] = experiment: Immune function in mice (clearance index, phagocytic index); details: ig 20 mg/kg, 3 days
Description: Fifty Kunming mice, half male and half female, weighing 18-22 g each were selected and randomly divided into five groups, namely, model control group, cyclophosphamide group, rhein sodium group, rhein glucosamine large dose group and small dose group, 10 mice for each group. The mice were administered with medicines by intragastric administration, 0.2 ml/10 g body weight, once every day and administered for 3 days in succession. After the mice were administered with medicines, 30 minutes later, test was carried on according to the method in the literature [Xu Shuyun, Methodology in Pharmacological Experiment (the 3rd version): 934]. The […] and corrected phagocytic index α were calculated, and t-test was conducted for statistical analysis.

mice [2] = experiment: Xylene-induced swelling of auricle in mice; details: ig 200 mg/kg, 3 days
Description: Fifty male Kunming mice were selected, weighing 18-22 g each, and randomly divided into five groups, namely, model control group, aspirin group, rhein sodium group, rhein glucosamine large dose group and low dose groups. Each group had 10 mice respectively. The mice were administered with medicines by intragastric administration every day, for 0.2 ml/10 g body weight. The mice of the model control group were administered with equal volume of physiological saline, once every day, continuously administration for 3 days. After 60 minutes of the final administration, carried on test according to the method in the literature [Xu Shuyun, Methodology in Pharmacological Experiment (the 3rd version): 911]. The sweeling degree of auricle was calculated and statistical analysis was conducted.

mice [3] = experiment: Acetic acid-induced writhing response in mice; details: ig 200 mg/kg, 12 days
Description: Fifty Kunming mice, half male and half female, weighing 18-22 g each, were selected and randomly divided into five groups, namely, model control group, aspirin group, rhein sodium group, rhein glucosamine large dose group and small dose group, 10 mice for each group. The mice were administered with medicine by intragastric administration every day, 0.2 ml/10 g body weight, once every day, and administered for 12 days in succession. After the final administration of medicines, 30 minutes later, test was carried on according to the methods in the literature [Xu Shuyun, Methodology in Pharmacological Experiment (the 1st version): 882]. The inhibiting rate for writhing response was calculated.

mice [4] = experiment: Intestinal propulsion in mice; details: dosage 9 mg/kg, intravenous injection
Description: Fifty mice, male, weighting from 18 to 22 g, were randomly divided into five groups, namely, model control group, domperidone group, rhein sodium group, rhein glucosamine large dose group and low dose group.
Each group has 10 mice respectively. The mice were fasted, but water was not prohibited, and then administered with medicines by intravenous injection. After that, tests were carried on immediately according to the methods in the literature[Xu Shuyun, Methodology in Pharmacological Experiment (the 3rd version): 1313]. The intestinal propulsive rates were calculated, and t test was used for the intergroup comparison.

diabetic rats = experiment: Diabetic nephrosis of obese diabetic rats (high-fat high-sugar diet plus STZ); details: for Urine protein / Kidney weight index (double kidney weight/body weight × 10^4) / Serum total cholesterol / Serum triacylglycerol / Steady blood sugar level / Steady insulin level / Weight / blood sugar: six months, ig 90 mg/kg
Description: Animal model of diabetic rats: after one month of high-fat high-sugar diet, the rats (about 180 g) were injected by sub-pathogenic dose (25 mg/kg) of streptozotocin (STZ) to induce the occurrence of diabetes. The model has the characteristics of moderate hyperglycemia, hyperlipidemia and insulin resistance as well as pathological changes of typical diabetic nephrosis.
• 1. Conventional feedstuff control group: distilled water. • 2. Diabetes model group: distilled water. • 3. Rhein lysine diabetes treatment group: a month after STZ injection, rhein lysine complex [prepared with distilled water, intragastric infusion for rats according to 90 mg/kg (0.209 mmol/kg) dose] was administered referred to treatment group 1. • 4. Rhein sodium diabetes treatment group: a month after STZ injection, rhein sodium [prepared with distilled water, intragastric infusion for rats, according to 65 mg/kg (0.212 mmol/kg) dose] was administered, referred to treatment group 2. • 5. Rhein lysine diabetes prevention group: one week after STZ injection, rhein lysine conjugates were administered [prepared with distilled water and intragastric infusion for rats, according to 90 mg/kg (0.209 mmol/kg) dose], referred to prevention group 1. • 6. Rhein sodium diabetes prevention group: one week after STZ injection, rhein sodium were administered [prepared with distilled water and intragastric infusion for rats, according to 65 mg/kg (0.212 mmol/kg ) dose], referred to prevention group 2.

obese hyperglycemia mice = experiment: Body weight and blood glucose of obese hyperglycemia mice
Description: 9-week-old obese mice of hyperglycemia were randomly divided into: rhein sodium group, non-treatment group, rosiglitazone group, rhein lysine high-dose group and low-dose group, each group has 6 mice. Kunming mice of the same age were used as the control group, which were fed by conventional feedstuff with free food and water feeding. Rhein lysine conjugates [the dose is 180 mg/kg (0.418 mmol/kg) and 90 mg/kg (0.209 mmol/kg) for intragastric infusion, prepared with distilled water], dose of the rhein sodium group is 130 mg/kg (0.424 mmol/kg), the mixture was dissolved with distilled water, intragastric administration; rosiglitazone group (the dose is 4 mg/kg), the mixture was dissolved with distilled water, intragastric administration, and the rats of the other two groups were administered with the same volume of distilled water, once a day, 12 weeks of administration in succession. The animals' body weight and blood sugar were measured regularly, and statistical analysis was conducted.

[5] = test system: obese rats of high-fat and high-sugar diet; experiment: Body weight of obese rats of high-fat and high-sugar diet
Text: Group A: conventional diet, 4 weeks later, started to carry on intragastric administration, and the same volume of distilled water as the control, once daily, three weeks in succession.
Group B: high-fat high-sugar diet, 4 weeks later, started to carry on intragastric administration, and the same volume of distilled water as the model control, once daily, three weeks in succession.
Group C: high-fat high-sugar diet, 4 weeks later, started to carry on intragastric administration of rhein lysine conjugates [dose: 90 mg/kg (0.209 mmol/kg), prepared by distilled water], once daily, three weeks in succession.
Group D: high-fat high-sugar diet, 4 weeks later, started to carry on intragastric administration of rhein lysine conjugates [dose: 45 mg/kg (0.105 mmol/kg), prepared by distilled water], once daily, three weeks in succession.
Group E: high-fat high-sugar diet, 4 weeks later, started to carry on intragastric administration of rhein sodium [dose: 65 mg/kg (0.212 mmol/kg), prepared by distilled water], once daily, three weeks in succession.

[6] = prevention group and treatment group, six months after administration
[7] = baseline of high-dose group, ig 180 mg/kg once a day
[8] = baseline of low-dose group, ig 90 mg/kg once a day

`O=P1(N(CCCl)CCCl)NCCCO1` (stereo not shown) [cyclophosphamide] was tested, and the “Clearance index (k)” value (mice [1]) was 0.0192 ± 0.0102 and the “Phagocytic index (α)” value (mice [1]) was 4.0208 ± 0.6698.

`CC(=O)Oc1ccccc1C(=O)O` [aspirin] gave an inhibition rate (mice [2]) of 48.9%, a swelling degree of auricle (mice [2]) of 9.1 ± 1.8 mg and an Inhibiting rate (mice [3]) of 65.6%. For the same compound, the Times of writhing (mice [3]) was 11.1 ± 6.3 per/20 min.

`O=c1[nH]c2ccccc2n1CCCN1CCC(n2c(=O)[nH]c3cc(Cl)ccc32)CC1` [domperidone] showed a Propulsive rate (mice [4]) of 55.42 ± 9.6 %.

In the case of `NCCCCC(N)C(=O)O.O=C(O)c1cc(O)c2c(c1)C(=O)c1cccc(O)c1C2=O` [Rhein lysine conjugate, Rhein Lysine Conjugate], the “kidney weight and kidney weight index compared with the model group” value (diabetic rats; [6]) is reported as “significantly lower”, the “serum cholesterol and triglyceride compared with the model group” value (diabetic rats; [6]) is reported as “significantly lower” and the “urine protein content compared with the model group” value (diabetic rats; [6]) is reported as “significantly lower”. For the same compound, the “blood sugar level compared with the model group” value (diabetic rats; prevention group, six months after administration) was “significantly lower”, the Urine protein (diabetic rats; preventive administration from one week after STZ) was 10.23 ± 3.34 mg/24 h and the “Kidney weight index (double kidney weight/body weight × 10^4)” value (diabetic rats; preventive administration) was 5.26 ± 0.74. For the same compound, the Serum total cholesterol (diabetic rats; preventive administration) was 2.78 ± 0.21 mM, the Serum triacylglycerol (diabetic rats; preventive administration) was 1.56 ± 0.32 and the “Steady blood sugar level” value (diabetic rats; preventive administration) was 6.2 ± 0.4 mmol/L. The Steady insulin level (diabetic rats; preventive administration) was 71.6 ± 3.5 uU/ml, the Weight (diabetic rats; preventive administration) was 248 ± 13 g and the blood sugar (diabetic rats; preventive administration) was 14.98 ± 5.9 mmol/L. For the same compound, the Urine protein (diabetic rats; treatment from a month after STZ) was 15.12 ± 5.68 mg/24 h, the “blood sugar level compared with the model group” value (diabetic rats; treatment group, six months after administration) was “no significant difference” and the “Kidney weight index (double kidney weight/body weight × 10^4)” value (diabetic rats; treatment) was 6.7 ± 0.78. For the same compound, the Serum total cholesterol (diabetic rats; treatment) was 3.56 ± 0.71 mM, the Serum triacylglycerol (diabetic rats; treatment) was 1.63 ± 0.39 and the “Steady blood sugar level” value (diabetic rats; treatment) was 5.6 ± 0.9 mmol/L. It also gave a Steady insulin level (diabetic rats; treatment) of 80 ± 3.5 uU/ml, a Weight (diabetic rats; treatment) of 228 ± 15 g and a blood sugar (diabetic rats; treatment) of 17.4 ± 5.6 mmol/L. The “weight and blood sugar compared with the non-treatment group” value (obese hyperglycemia mice; 9 weeks after administration) was “extremely significant difference”, the “Blood glucose prior to administration” value (obese hyperglycemia mice; [7]) was 29.2 ± 3.6 mmol/L and the “Body weight prior to administration” value (obese hyperglycemia mice; [7]) was 29.2 ± 1.6 g. The “Blood glucose prior to administration” value (obese hyperglycemia mice; [8]) was 28.7 ± 5.3 mmol/L, the “Body weight prior to administration” value (obese hyperglycemia mice; [8]) was 28.8 ± 1.6 g and the “Blood glucose 6 w after administration” value (obese hyperglycemia mice; ig 90 mg/kg once a day) was 31.4 ± 4.9 mmol/L. For the same compound, the “Blood glucose 9 w after administration” value (obese hyperglycemia mice; ig 90 mg/kg once a day) was 33.7 ± 5.6 mmol/L, the “Blood glucose 12 w after administration” value (obese hyperglycemia mice; ig 90 mg/kg once a day) was 30.4 ± 4.2 mmol/L and the “Body weight 6 w after administration” value (obese hyperglycemia mice; ig 90 mg/kg once a day) was 35.7 ± 1.7 g. The “Body weight 9 w after administration” value (obese hyperglycemia mice; ig 90 mg/kg once a day) was 39.3 ± 1.2 g, the “Body weight 12 w after administration” value (obese hyperglycemia mice; ig 90 mg/kg once a day) was 41.3 ± 1.6 g and the “Blood glucose 6 w after administration” value (obese hyperglycemia mice; ig 180 mg/kg once a day) was 30.9 ± 4.2 mmol/L. The “Blood glucose 9 w after administration” value (obese hyperglycemia mice; ig 180 mg/kg once a day) was 30.2 ± 5.3 mmol/L, the “Blood glucose 12 w after administration” value (obese hyperglycemia mice; ig 180 mg/kg once a day) was 28.1 ± 5.4 mmol/L and the “Body weight 6 w after administration” value (obese hyperglycemia mice; ig 180 mg/kg once a day) was 34.9 ± 1.6 g. The “Body weight 9 w after administration” value (obese hyperglycemia mice; ig 180 mg/kg once a day) was 38.2 ± 1.3 g, the “Body weight 12 w after administration” value (obese hyperglycemia mice; ig 180 mg/kg once a day) was 40.1 ± 1.4 g and the “The body weight increased 7 weeks after high-sugar high-fat diet” value ([5]; Group C, after three weeks ig 90 mg/kg once daily) was 16.8 ± 4.8 g. The “The body weight increased 4 weeks after high-sugar high-fat diet” value ([5]; Group C, before start of ig 90 mg/kg) was 15.3 ± 3.8 g, the “The body weight increased 7 weeks after high-sugar high-fat diet” value ([5]; Group D, after three weeks ig 45 mg/kg once daily) was 17.7 ± 4.6 g and the “The body weight increased 4 weeks after high-sugar high-fat diet” value ([5]; Group D, before start of ig 45 mg/kg) was 16.1 ± 4.2 g.
